Results: patent US20190315823A1, “SMALL CATIONIC ANTI-BIOFILM AND IDR PEPTIDES” (priority 2013, published 2019)
Ends that are not written are not given here.

The substances below were run on LPS-stimulated human peripheral blood mononuclear cells (IL1-β) (assay: not given). Settings: Table 12; cells stimulated with 10 ng/ml LPS.
Format: cell-based

“1002-W3: single substituted 1002 peptide (VQWWLIVWRIRK-NH2) [Peptide 1002-W3]” and “1002-I11: single substituted 1002 peptide (VQRWLIVWRIIK-NH2) [Peptide 1002-I11]” are the same in “Fold change in IL1β relative to no peptide LPS stimulated cells” value: 0.05 for the first, 0.05 for the second.

First: HH2-L4: single substituted HH2 peptide (VQLLIRVAVIRA-NH2)
Second: 1002-L10: single substituted 1002 peptide (VQRWLIVWRLRK-NH2) [Peptide 1002-L10]
The “Fold change in IL1β relative to no peptide LPS stimulated cells” value of the first is higher: 0.61 for the first, 0.05 for the second.

Going from “HH2-L11: single substituted HH2 peptide (VQLRIRVAVILA-NH2)” to “HH2-R9: single substituted HH2 peptide (VQLRIRVARIRA-NH2)”, the “Fold change in IL1β relative to no peptide LPS stimulated cells” value rises from 1.09 to 1.60.

“1002-Q9: single substituted 1002 peptide (VQRWLIVWQIRK-NH2) [Peptide 1002-Q9]” and “1002-W10: single substituted 1002 peptide (VQRWLIVWRWRK-NH2) [Peptide 1002-W10]” are the same in “Fold change in IL1β relative to no peptide LPS stimulated cells” value: 0.05 for the first, 0.05 for the second.

Going from “1002-A4: single substituted 1002 peptide (VQRALIVWRIRK-NH2) [Peptide 1002-A4]” to “HH2-R5: single substituted HH2 peptide (VQLRRRVAVIRA-NH2)”, the “Fold change in IL1β relative to no peptide LPS stimulated cells” value rises from 0.27 to 1.66.

“1002-W9: single substituted 1002 peptide (VQRWLIVWWIRK-NH2) [Peptide 1002-W9]” and “1002-Q10: single substituted 1002 peptide (VQRWLIVWRQRK-NH2) [Peptide 1002-Q10]” are the same in “Fold change in IL1β relative to no peptide LPS stimulated cells” value: 0.05 for the first, 0.05 for the second.

First: 1018-W5: single substituted 1018 peptide (VRLIWAVRIWRR-NH2) [Peptide 1018-W5]
Second: HH2-A1: single substituted HH2 peptide (AQLRIRVAVIRA-NH2)
The “Fold change in IL1β relative to no peptide LPS stimulated cells” value of the first is lower: 0.10 for the first, 1.21 for the second.

With “HH2-G11: single substituted HH2 peptide (VQLRIRVAVIGA-NH2)” the “Fold change in IL1β relative to no peptide LPS stimulated cells” value was 0.99.

Same assay, conditions: Table 12; cells stimulated with 10 ng/ml LPS; LPS alone 1313 (HH2 derivatives), 1927 (1018 derivatives), 2455 (1002 and hybrid peptides) pg/ml

“1002-W3: single substituted 1002 peptide (VQWWLIVWRIRK-NH2) [Peptide 1002-W3]” and “1002-I11: single substituted 1002 peptide (VQRWLIVWRIIK-NH2) [Peptide 1002-I11]” are the same in “IL1β Production” value: 127 pg/mL for the first, 127 pg/mL for the second.

First: HH2-L4: single substituted HH2 peptide (VQLLIRVAVIRA-NH2)
Second: 1002-L10: single substituted 1002 peptide (VQRWLIVWRLRK-NH2) [Peptide 1002-L10]
The “IL1β Production” value of the first is 6.3-fold higher: 800 pg/mL for the first, 127 pg/mL for the second.

“HH2-L11: single substituted HH2 peptide (VQLRIRVAVILA-NH2)” and “HH2-R9: single substituted HH2 peptide (VQLRIRVARIRA-NH2)” are within 1.5-fold of each other in “IL1β Production” value: 1425 pg/mL for the first, 2099 pg/mL for the second.

“1002-Q9: single substituted 1002 peptide (VQRWLIVWQIRK-NH2) [Peptide 1002-Q9]” and “1002-W10: single substituted 1002 peptide (VQRWLIVWRWRK-NH2) [Peptide 1002-W10]” are the same in “IL1β Production” value: 127 pg/mL for the first, 127 pg/mL for the second.

Going from “1002-A4: single substituted 1002 peptide (VQRALIVWRIRK-NH2) [Peptide 1002-A4]” to “HH2-R5: single substituted HH2 peptide (VQLRRRVAVIRA-NH2)”, the “IL1β Production” value rises from 655 pg/mL to 2186 pg/mL (3.3-fold).

“1002-W9: single substituted 1002 peptide (VQRWLIVWWIRK-NH2) [Peptide 1002-W9]” and “1002-Q10: single substituted 1002 peptide (VQRWLIVWRQRK-NH2) [Peptide 1002-Q10]” are the same in “IL1β Production” value: 127 pg/mL for the first, 127 pg/mL for the second.

Going from “1018-W5: single substituted 1018 peptide (VRLIWAVRIWRR-NH2) [Peptide 1018-W5]” to “HH2-A1: single substituted HH2 peptide (AQLRIRVAVIRA-NH2)”, the “IL1β Production” value rises from 127 pg/mL to 1587 pg/mL (12-fold).

“HH2-G11: single substituted HH2 peptide (VQLRIRVAVIGA-NH2)” was tested, and the “IL1β Production” value was 1303 pg/mL.

What follows are substances tested on methicillin resistant Staphylococcus aureus (MRSA) biofilm (assay: not given). Settings: approximate peptide concentration […] (around 3 μg/ml); compared to untreated samples.
Procedure, shortened: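 Peptide was present from inoculation onward, with bacteria seeded at 1/100 from overnight cultures into BM2 biofilm medium or Luria Broth. Crystal violet staining of surface-attached cells (A595) quantified biofilm reduction at 22–46 h. K. pneumoniae was additionally screened in a real-time Bioflux flow device for some peptides.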

First: 1002-W3: single substituted 1002 peptide (VQWWLIVWRIRK-NH2) [Peptide 1002-W3]
Second: 1002-I11: single substituted 1002 peptide (VQRWLIVWRIIK-NH2) [Peptide 1002-I11]
The “% Biofilm inhibition” value of the first is higher: 68% for the first, 67% for the second.

Compared with “HH2-L4: single substituted HH2 peptide (VQLLIRVAVIRA-NH2)”, “1002-L10: single substituted 1002 peptide (VQRWLIVWRLRK-NH2) [Peptide 1002-L10]” is higher in “% Biofilm inhibition” value: 54% for the first, 65% for the second.

Compared with “HH2-L11: single substituted HH2 peptide (VQLRIRVAVILA-NH2)”, “HH2-R9: single substituted HH2 peptide (VQLRIRVARIRA-NH2)” is higher in “% Biofilm inhibition” value: 47% for the first, 65% for the second.

First: 1002-Q9: single substituted 1002 peptide (VQRWLIVWQIRK-NH2) [Peptide 1002-Q9]
Second: 1002-W10: single substituted 1002 peptide (VQRWLIVWRWRK-NH2) [Peptide 1002-W10]
The “% Biofilm inhibition” value of the first is lower: 41% for the first, 71% for the second.

Going from “1002-A4: single substituted 1002 peptide (VQRALIVWRIRK-NH2) [Peptide 1002-A4]” to “HH2-R5: single substituted HH2 peptide (VQLRRRVAVIRA-NH2)”, the “% Biofilm inhibition” value falls from 52% to 0%.

First: 1002-W9: single substituted 1002 peptide (VQRWLIVWWIRK-NH2) [Peptide 1002-W9]
Second: 1002-Q10: single substituted 1002 peptide (VQRWLIVWRQRK-NH2) [Peptide 1002-Q10]
The “% Biofilm inhibition” value of the first is higher: 73% for the first, 39% for the second.

Going from “1018-W5: single substituted 1018 peptide (VRLIWAVRIWRR-NH2) [Peptide 1018-W5]” to “HH2-A1: single substituted HH2 peptide (AQLRIRVAVIRA-NH2)”, the “% Biofilm inhibition” value rises from 55% to 56%.

With “HH2-G11: single substituted HH2 peptide (VQLRIRVAVIGA-NH2)” the “% Biofilm inhibition” value was 72%.

The substances below were run on human peripheral blood mononuclear cells (MCP-1) (assay: SPOT-synthesized derivative screen: production of chemokine MCP-1). Settings: Table 12; No LPS; human PBMC, peptide at ~18-24 μM.
Format: cell-based
Procedure, shortened: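 MCP-1 was quantified by capture ELISA in cleared culture supernatants of treated human peripheral blood mononuclear cells. Cells came from heparinized volunteer blood via Ficoll gradient and were seeded at 0.75 to 1×10^6 cells/ml (37 °C, 5% CO2).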

First: 1002-W3: single substituted 1002 peptide (VQWWLIVWRIRK-NH2) [Peptide 1002-W3]
Second: 1002-I11: single substituted 1002 peptide (VQRWLIVWRIIK-NH2) [Peptide 1002-I11]
The “Fold increase in MCP1 cf. untreated cells” value (“Fold increase” for short) of the first is lower: 1.4 for the first, 2.0 for the second.

Compared with “HH2-L4: single substituted HH2 peptide (VQLLIRVAVIRA-NH2)”, “1002-L10: single substituted 1002 peptide (VQRWLIVWRLRK-NH2) [Peptide 1002-L10]” is lower in “Fold increase” value: 18 for the first, 3.0 for the second.

First: HH2-L11: single substituted HH2 peptide (VQLRIRVAVILA-NH2)
Second: HH2-R9: single substituted HH2 peptide (VQLRIRVARIRA-NH2)
The “Fold increase” value of the first is higher: 40 for the first, 3.4 for the second.

Going from “1002-Q9: single substituted 1002 peptide (VQRWLIVWQIRK-NH2) [Peptide 1002-Q9]” to “1002-W10: single substituted 1002 peptide (VQRWLIVWRWRK-NH2) [Peptide 1002-W10]”, the “Fold increase” value rises from 7.2 to 8.8.

First: 1002-A4: single substituted 1002 peptide (VQRALIVWRIRK-NH2) [Peptide 1002-A4]
Second: HH2-R5: single substituted HH2 peptide (VQLRRRVAVIRA-NH2)
The “Fold increase” value of the first is lower: 0.9 for the first, 4.0 for the second.

First: 1002-W9: single substituted 1002 peptide (VQRWLIVWWIRK-NH2) [Peptide 1002-W9]
Second: 1002-Q10: single substituted 1002 peptide (VQRWLIVWRQRK-NH2) [Peptide 1002-Q10]
The “Fold increase” value of the first is lower: 1.0 for the first, 1.3 for the second.

Compared with “1018-W5: single substituted 1018 peptide (VRLIWAVRIWRR-NH2) [Peptide 1018-W5]”, “HH2-A1: single substituted HH2 peptide (AQLRIRVAVIRA-NH2)” is higher in “Fold increase” value: 0.8 for the first, 14 for the second.

With “HH2-G11: single substituted HH2 peptide (VQLRIRVAVIGA-NH2)” the “Fold increase” value was 2.0.

Same assay, conditions: Table 12; No LPS; human PBMC, peptide at ~18-24 μM; background subtracted 139 (HH2 derivatives), 170 (1018 derivatives), 242 (1002 and hybrid peptides) pg/ml

Going from “1002-W3: single substituted 1002 peptide (VQWWLIVWRIRK-NH2) [Peptide 1002-W3]” to “1002-I11: single substituted 1002 peptide (VQRWLIVWRIIK-NH2) [Peptide 1002-I11]”, the “MCP1” value rises from 90.4 pg/mL to 238.8 pg/mL (2.6-fold).

First: HH2-L4: single substituted HH2 peptide (VQLLIRVAVIRA-NH2)
Second: 1002-L10: single substituted 1002 peptide (VQRWLIVWRLRK-NH2) [Peptide 1002-L10]
The “MCP1” value of the first is 5.8-fold higher: 2884 pg/mL for the first, 493.6 pg/mL for the second.

Compared with “HH2-L11: single substituted HH2 peptide (VQLRIRVAVILA-NH2)”, “HH2-R9: single substituted HH2 peptide (VQLRIRVARIRA-NH2)” is […]-fold lower in “MCP1” value: 6545 pg/mL for the first, 406 pg/mL for the second.

“1002-Q9: single substituted 1002 peptide (VQRWLIVWQIRK-NH2) [Peptide 1002-Q9]” and “1002-W10: single substituted 1002 peptide (VQRWLIVWRWRK-NH2) [Peptide 1002-W10]” are within 1.5-fold of each other in “MCP1” value: 1514.2 pg/mL for the first, 1889.1 pg/mL for the second.

Compared with “1002-A4: single substituted 1002 peptide (VQRALIVWRIRK-NH2) [Peptide 1002-A4]”, “HH2-R5: single substituted HH2 peptide (VQLRRRVAVIRA-NH2)” is higher in “MCP1” value: -36.2 pg/mL for the first, 515 pg/mL for the second.

First: 1002-W9: single substituted 1002 peptide (VQRWLIVWWIRK-NH2) [Peptide 1002-W9]
Second: 1002-Q10: single substituted 1002 peptide (VQRWLIVWRQRK-NH2) [Peptide 1002-Q10]
The “MCP1” value of the first is 5.9-fold lower: 12.0 pg/mL for the first, 71.2 pg/mL for the second.

First: 1018-W5: single substituted 1018 peptide (VRLIWAVRIWRR-NH2) [Peptide 1018-W5]
Second: HH2-A1: single substituted HH2 peptide (AQLRIRVAVIRA-NH2)
The “MCP1” value of the first is lower: -28 pg/mL for the first, 2254 pg/mL for the second.

“HH2-G11: single substituted HH2 peptide (VQLRIRVAVIGA-NH2)” was tested, and the “MCP1” value was 177 pg/mL.
